Assay results as given in US20260249027A1, “METERED DOSE INHALERS AND HIGH-DOSE SUSPENSIONS” (Kindeva Drug Delivery L.P., priority 2023, published 2026).

Key:
Assay type in all cases: physicochemical
[1] = Through life dose consistency of nintedanib (free base) pMDI suspensions (USP <601>, apparatus A)
Procedure: (§1) In the following examples, dose consistency was determined by in vitro measurement of single actuation dose content at start, middle and end of pMDI unit life in line with U.S. Pharmacopeia (USP)<601>, using a flow rate of 28.3 L/min and apparatus A. Aerodynamic particle size distribution of the pMDI suspension aerosols was measured at start of unit life in line with U.S. Pharmacopeia (USP)<601> using a Next Generation impactor without pre-separator (apparatus 6) and a flow rate of 30 L/min.
(§2) Suspensions of micronized nintedanib (free base) in HFA-152a or HFO-1234ze(E) were prepared. A first set of suspensions included no ethanol. A second set of suspensions included 2% ethanol by weight. Each suspension included an amount of nintedanib (free base) to provide a nominal delivered dose (ex-valve) of 0.5 mg/actuation (7.94 mg/mL) or 1.0 mg/actuation (15.87 mg/mL). Two further suspensions including no ethanol were prepared which included an amount of nintedanib (free base) to provide a nominal delivered dose (ex-valve) of 2.0 mg/actuation (20.0 mg/mL).
(§3) In total, ten suspension pMDI formulations were prepared in triplicate with sufficient fill weight to provide 60 actuations. The pMDI formulations containing 0.5 mg/actuation (7.94 mg/mL) and 1.0 mg/actuation (15.87 mg/mL) of nintedanib (free base) were filled into Kindeva FEP coated canisters, crimped with a Kindeva 63-μL valve. The pMDI formulations containing 2.0 mg/actuation (20.0 mg/mL) of nintedanib (free base) were filled into Kindeva FEP coated canisters, crimped with a Kindeva 100-μL valve. Each pMDI unit was sonicated for at least 10 minutes to disperse the suspended drug and tested with a Kindeva actuator having an exit orifice diameter (EOD) of 0.4 mm.
The through-life (TL) dose consistency of each pMDI unit was determined by measuring the mean ex-actuator delivered dose in micrograms of nintedanib (free base) (N=3) at the start of life (SoL), middle of life (MOL) and end of life (EoL) of the unit.

[2] = Aerodynamic particle size measurement of nintedanib (free base) pMDI suspensions (Next Generation impactor)
Text: In general, aerosols with mass median aerodynamic diameters (MMAD) of at least 1 μm but less than 5 μm in size are suitable for effective deep lung deposition for therapeutic effect. Herein, fine particle fraction (FPF) is defined as the percentage of the ex-actuator delivered API having a MMAD of less than 5 μm when tested in vitro. Herein, “ex-actuator” delivered dose is used to describe the amount of API delivered past the actuator of a pMDI. Therefore, an aerosol with a high FPF is typically suitable for deep lung deposition.
as §1, §2
as §3, with “mm. The mass median aerodynamic diameter (MMAD) and fine particle fraction (FPF) of each pMDI unit were measured by Next Generation cascade impaction (N=3) for each pMDI suspension.” for “mm.”

[3] = Additional through life dosing content uniformity of nintedanib suspension in HFO-1234ze(E), coated 63-microliter valve; details: nominal 1 mg/actuation (15.9 mg/mL), HFO-1234ze(E) without ethanol
Procedure: as §1
(§4) A suspension of nintedanib was prepared in HFO-1234ze(E). The concentration of nintedanib (15.9 mg/mL) was selected to provide a nominal actuation dose of 1 mg/actuation from a 63-microliter valve. The bottle emptier, tank, spring, and ferrule components of the valves were coated with a fluoropolymer coating according to the general process described in Example 2 of U.S. Patent Application Publication 2017/0152396 A1 (Jinks et al., hereby incorporated by reference). The formulation was mixed with a high shear mixer and cold filled into 16 mL FEP-coated canisters.
(§5) Average fine particle mass (<5 μm) was 434 μg/actuation.

[4] = Fine particle mass of nintedanib suspension in HFO-1234ze(E), coated 63-microliter valve; details: nominal 1 mg/actuation (15.9 mg/mL), HFO-1234ze(E) without ethanol
Procedure: as §1, §4, §5

[5] = nominal ex-valve 0.5 mg/act, HFA152a/2% EtOH (w/w), 63-μL valve
[6] = nominal ex-valve 0.5 mg/act, HFA152a, 63-μL valve
[7] = nominal ex-valve 0.5 mg/act, HFO1234ze(E)/2% EtOH (w/w), 63-μL valve
[8] = nominal ex-valve 0.5 mg/act, HFO1234ze(E), 63-μL valve
[9] = nominal ex-valve 1.0 mg/act, HFA152a/2% EtOH (w/w), 63-μL valve
[10] = nominal ex-valve 1.0 mg/act, HFA152a, 63-μL valve
[11] = nominal ex-valve 1.0 mg/act, HFO1234ze(E)/2% EtOH (w/w), 63-μL valve
[12] = nominal ex-valve 1.0 mg/act, HFO1234ze(E), 63-μL valve
[13] = nominal ex-valve 2.0 mg/act, HFA152a, 100-μL valve
[14] = nominal ex-valve 2.0 mg/act, HFO1234ze(E), 100-μL valve
[15] = nominal ex-valve 0.5 mg/act, HFA-152a/2% EtOH (w/w), 63-μL valve
[16] = nominal ex-valve 0.5 mg/act, HFA-152a, 63-μL valve
[17] = nominal ex-valve 0.5 mg/act, HFO-1234ze(E)/2% EtOH (w/w), 63-μL valve
[18] = nominal ex-valve 0.5 mg/act, HFO-1234ze(E), 63-μL valve
[19] = nominal ex-valve 1.0 mg/act, HFA-152a/2% EtOH (w/w), 63-μL valve
[20] = nominal ex-valve 1.0 mg/act, HFA-152a, 63-μL valve
[21] = nominal ex-valve 1.0 mg/act, HFO-1234ze(E)/2% EtOH (w/w), 63-μL valve
[22] = nominal ex-valve 1.0 mg/act, HFO-1234ze(E), 63-μL valve
[23] = nominal ex-valve 2.0 mg/act, HFA-152a, 100-μL valve
[24] = nominal ex-valve 2.0 mg/act, HFO-1234ze(E), 100-μL valve

effect of addition of ethanol on through unit life ex-actuator delivered dose consistency ([1]; 2% ethanol by weight, HFA-152a or HFO-1234ze(E)): did not always substantially improve | through unit life ex-actuator delivered dose consistency ([1]; HFA-152a or HFO-1234ze(E) with and without 2% ethanol by weight): relatively consistent | EoL mean delivered dose [1, 5]: 383.1 μg/act | MoL mean delivered dose [1, 5]: 364.6 μg/act | SoL mean delivered dose [1, 5]: 452.4 μg/act | TL mean delivered dose [1, 5]: 400.1 μg/act | EoL mean delivered dose [1, 6]: 335.9 μg/act | MoL mean delivered dose [1, 6]: 360.0 μg/act | SoL mean delivered dose [1, 6]: 468.9 μg/act | TL mean delivered dose [1, 6]: 388.3 μg/act | EoL mean delivered dose [1, 7]: 378.0 μg/act | MoL mean delivered dose [1, 7]: 385.9 μg/act | SoL mean delivered dose [1, 7]: 431.1 μg/act | TL mean delivered dose [1, 7]: 398.3 μg/act | EoL mean delivered dose [1, 8]: 380.5 μg/act | MoL mean delivered dose [1, 8]: 372.8 μg/act | SoL mean delivered dose [1, 8]: 401.8 μg/act | TL mean delivered dose [1, 8]: 385.0 μg/act | EoL mean delivered dose [1, 9]: 818.8 μg/act | MoL mean delivered dose [1, 9]: 773.1 μg/act | SoL mean delivered dose [1, 9]: 940.6 μg/act | TL mean delivered dose [1, 9]: 844.2 μg/act | EoL mean delivered dose [1, 10]: 890.2 μg/act | MoL mean delivered dose [1, 10]: 759.1 μg/act | SoL mean delivered dose [1, 10]: 1020.0 μg/act | TL mean delivered dose [1, 10]: 889.8 μg/act | EoL mean delivered dose [1, 11]: 818.5 μg/act | MoL mean delivered dose [1, 11]: 824.9 μg/act | SoL mean delivered dose [1, 11]: 926.7 μg/act | TL mean delivered dose [1, 11]: 856.7 μg/act | EoL mean delivered dose [1, 12]: 947.3 μg/act | MoL mean delivered dose [1, 12]: 962.2 μg/act | SoL mean delivered dose [1, 12]: 947.8 μg/act | TL mean delivered dose [1, 12]: 952.4 μg/act | EoL mean delivered dose [1, 13]: 1954.6 μg/act | MoL mean delivered dose [1, 13]: 1876.0 μg/act | SoL mean delivered dose [1, 13]: 2205.7 μg/act | TL mean delivered dose [1, 13]: 2012.2 μg/act | EoL mean delivered dose [1, 14]: 2282.4 μg/act | MoL mean delivered dose [1, 14]: 1884.0 μg/act | SoL mean delivered dose [1, 14]: 1561.8 μg/act | TL mean delivered dose [1, 14]: 1909.4 μg/act | MMAD values of aerosols, suitability ([2]; HFA-152a or HFO-1234ze(E), with and without ethanol, in-vitro): in an appropriate respirable range | Mean FPF [2, 15]: 26.9% | Mean MMAD [2, 15]: 3.65 μm | Mean FPF [2, 16]: 33.7% | Mean MMAD [2, 16]: 3.74 μm | Mean FPF [2, 17]: 36.8% | Mean MMAD [2, 17]: 3.50 μm | Mean FPF [2, 18]: 60.0% | Mean MMAD [2, 18]: 2.88 μm | Mean FPF [2, 19]: 18.0% | Mean MMAD [2, 19]: 4.74 μm | Mean FPF [2, 20]: 23.8% | Mean MMAD [2, 20]: 5.01 μm | Mean FPF [2, 21]: 29.3% | Mean MMAD [2, 21]: 4.20 μm | Mean FPF [2, 22]: 44.4% | Mean MMAD [2, 22]: 3.66 μm | Mean FPF [2, 23]: 16.7% | Mean MMAD [2, 23]: 7.47 μm | Mean FPF [2, 24]: 34.8% | Mean MMAD [2, 24]: 4.08 μm | average dose (through life dosing content uniformity) [3]: 950 μg/actuation | Average fine particle mass (<5 μm) [4]: 434 μg/actuation
SMILES: COC(=O)c1ccc2c(c1)NC(=O)/C2=C(\Nc1ccc(N(C)C(=O)CN2CCN(C)CC2)cc1)c1ccccc1 [nintedanib (free base), nintedanib]
FPF and MMAD without ethanol compared with corresponding suspensions with 2% ethanol by weight ([2]; HFA-152a or HFO-1234ze(E), all nominal doses): consistently produced greater FPFs and smaller MMADs | FPF and MMAD in HFO-1234ze(E) compared with corresponding suspensions in HFA-152a ([2]; with or without ethanol): consistently produced greater FPFs and smaller MMADs | Through life dosing content uniformity, trend [3]: no trending between start, middle, and end of life
